Reference: ChEMBL document CHEMBL1131273, “Unsymmetric nonpeptidic HIV protease inhibitors containing anthranilamide as a P2' ligand” (Bioorg Med Chem Lett, 1998)
One block for each compound: values may come before it.

How the values were obtained:
CCRF-CEM [1] = assay: Antiviral activity against HIV-I 3b in CEM cells; type: functional, cell-based; settings: Homo sapiens
[2] = biological target: Human immunodeficiency virus type 1 protease (Human immunodeficiency virus 1, UniProt Q72874); assay: Inhibitory activity against HIV protease
[3] = biological target: Human immunodeficiency virus type 1 protease (Human immunodeficiency virus 1) (UniProt Q72874); assay: Compound was tested for inhibitory activity against HIV protease; settings: concentration not given here
CCRF-CEM [4] = assay: Antiviral activity against HIV-I 3b in CEM cells; No activity; type: functional, cell-based, Homo sapiens
[5] = Maximum plasma concentration of compound present in rats at the dose of 38 mg/kg in 15 min; type: ADME, organism-based; design: dose 38 mg/kg; settings: rat
[6] = Oral bioavailability in rat; type: ADME, organism-based; settings: in vivo
CCRF-CEM [7] = assay: Compound was tested for cellular toxicity against CEM cell line; type: functional, cell-based; settings: Homo sapiens
[8] = Maximum plasma concentration of compound present in rats at the dose of 37 mg/kg in 15 min; type: ADME, organism-based; design: dose 37 mg/kg; settings: rat
[9] = Biological half-life was measured in plasma of rats; type: ADME, organism-based; settings: rat
[10] = Ratio Cmax/EC50 was determined; type: functional

SMILES: CC(C)(C)OC(=O)N[C@@H](Cc1ccccc1)[C@@H](O)[C@@H](O)[C@H](Cc1ccccc1)NC(=O)c1ccccc1NC(=O)OCc1ccccn1
EC50 (CCRF-CEM [1]): 400 nM
Ki [2]: 0.13 nM

inhibition [3]: 61%
EC50 (CCRF-CEM [1]): > 10000 nM
SMILES: Cc1nc(C(=O)N[C@@H](Cc2ccccc2)[C@@H](O)C[C@H](Cc2ccccc2)NC(=O)c2ccccc2NC(=O)OCc2ccccn2)cs1

SMILES: Cc1ccccc1C(=O)N[C@@H](Cc1ccccc1)[C@@H](O)C[C@H](Cc1ccccc1)NC(=O)c1ccccc1NC(=O)OCc1ccccn1
EC50 (CCRF-CEM [1]): 500 nM
Ki [2]: 0.27 nM

SMILES: O=C(Nc1ccccc1C(=O)N[C@@H](Cc1ccccc1)C[C@H](O)[C@H](Cc1ccccc1)NC(=O)c1cscn1)OCc1ccccn1
EC50 (CCRF-CEM [1]): 3000 nM
Ki [2]: 4.7 nM

SMILES: CC(C)(C)OC(=O)N[C@@H](Cc1ccccc1)[C@@H](O)C[C@H](Cc1ccccc1)NC(=O)c1ccccc1NC(=O)OCc1ccccn1
EC50 (CCRF-CEM [1]): 600 nM
Ki [2]: 0.13 nM

SMILES: O=C(Nc1ccccc1C(=O)N[C@@H](Cc1ccccc1)[C@H](O)[C@H](O)[C@H](Cc1ccccc1)NC(=O)O[C@@H]1CCOC1)OCc1ccccn1
EC50 (CCRF-CEM [1]): 60 nM
Ki [2]: 0.07 nM

SMILES: O=C(Nc1ccccc1C(=O)N[C@@H](Cc1ccccc1)C[C@H](O)[C@H](Cc1ccccc1)NC(=O)OCc1cccnc1)OCc1ccccn1
EC50 (CCRF-CEM [1]): 350 nM
Ki [2]: 0.01 nM

SMILES: CCOC(=O)N[C@H](C(=O)N[C@@H](Cc1ccccc1)[C@@H](O)C[C@H](Cc1ccccc1)NC(=O)c1ccccc1NC(=O)OCc1ccccn1)[C@@H](C)CC
EC50 (CCRF-CEM [1]): 50 nM
Ki [2]: 0.02 nM

SMILES: Nc1ccc(C(=O)N[C@@H](Cc2ccccc2)[C@@H](O)C[C@H](Cc2ccccc2)NC(=O)c2ccccc2NC(=O)OCc2ccccn2)cc1
EC50 (CCRF-CEM [1]): 500 nM
Ki [2]: 1.5 nM

SMILES: O=C(Nc1ccccc1C(=O)N[C@@H](Cc1ccccc1)[C@H](O)[C@H](O)[C@H](Cc1ccccc1)NC(=O)c1ccno1)OCc1ccccn1
EC50 (CCRF-CEM [1]): 800 nM
Ki [2]: 0.4 nM

SMILES: O=C(Nc1ccccc1C(=O)N[C@@H](Cc1ccccc1)[C@@H](O)C[C@H](Cc1ccccc1)NC(=O)c1cccc(O)c1)OCc1ccccn1
EC50 (CCRF-CEM [1]): > 10000 nM
Ki [2]: 8.6 nM

SMILES: O=C(Nc1ccccc1C(=O)N[C@@H](Cc1ccccc1)[C@@H](O)[C@@H](O)[C@H](Cc1ccccc1)NC(=O)c1cccc(O)c1)OCc1ccccn1
EC50 (CCRF-CEM [1]): 900 nM
Ki [2]: 1.7 nM

SMILES: O=C(Nc1ccccc1C(=O)N[C@@H](Cc1ccccc1)C[C@H](O)[C@H](Cc1ccccc1)NC(=O)c1ccno1)OCc1ccccn1
EC50 (CCRF-CEM [1]): 2000 nM
Ki [2]: 1.2 nM

SMILES: Nc1ccc(C(=O)N[C@@H](Cc2ccccc2)[C@H](O)[C@H](O)[C@H](Cc2ccccc2)NC(=O)c2ccccc2NC(=O)OCc2ccccn2)cc1
Ki [2]: 6.6 nM
EC50 (CCRF-CEM [4]): Not Active

SMILES: O=C(Nc1ccccc1C(=O)N[C@@H](Cc1ccccc1)[C@H](O)[C@H](O)[C@H](Cc1ccccc1)NC(=O)c1ccccc1NC(=O)OCc1ccccn1)OCc1ccccn1
EC50 (CCRF-CEM [1]): 60 nM
Ki [2]: 0.07 nM

SMILES: Cc1c(O)cccc1C(=O)N[C@@H](Cc1ccccc1)[C@@H](O)[C@@H](O)[C@H](Cc1ccccc1)NC(=O)c1ccccc1NC(=O)OCc1ccccn1
EC50 (CCRF-CEM [1]): 20 nM
Ki [2]: 0.09 nM

SMILES: CC(C)(C)OC(=O)N[C@@H](Cc1ccccc1)C[C@H](O)[C@H](Cc1ccccc1)NC(=O)c1ccccc1NC(=O)OCc1ccccn1
EC50 (CCRF-CEM [1]): 490 nM
Ki [2]: 0.85 nM

SMILES: O=C(Nc1ccccc1C(=O)N[C@@H](Cc1ccccc1)C[C@H](O)[C@H](Cc1ccccc1)NC(=O)O[C@@H]1CCOC1)OCc1ccccn1
EC50 (CCRF-CEM [1]): 30 nM
Ki [2]: 0.04 nM
Cmax [5]: 1040 nM
bioavailability [6]: 6%

SMILES: Cc1c(O)cccc1C(=O)N[C@@H](Cc1ccccc1)C[C@H](O)[C@H](Cc1ccccc1)NC(=O)c1ccccc1NC(=O)OCc1ccccn1
EC50 (CCRF-CEM [1]): > 1000 nM
Ki [2]: 0.68 nM

SMILES: O=C(Nc1ccccc1C(=O)N[C@@H](Cc1ccccc1)C[C@H](O)[C@H](Cc1ccccc1)NC(=O)OCc1cscn1)OCc1ccccn1
EC50 (CCRF-CEM [1]): 600 nM
Ki [2]: 0.62 nM

SMILES: Cc1c(N)cccc1C(=O)N[C@@H](Cc1ccccc1)[C@@H](O)C[C@H](Cc1ccccc1)NC(=O)c1ccccc1NC(=O)OCc1ccccn1
EC50 (CCRF-CEM [1]): 60 nM
Ki [2]: 0.12 nM
bioavailability [6]: < 2%

SMILES: CC(C)(C)OC(=O)N[C@@H](Cc1ccccc1)[C@H](O)[C@H](O)[C@H](Cc1ccccc1)NC(=O)c1ccccc1NC(=O)OCc1ccccn1
EC50 (CCRF-CEM [1]): 490 nM
IC50 (CCRF-CEM [7]): 21000 nM
Ki [2]: 0.45 nM

SMILES: O=C(Nc1ccccc1C(=O)N[C@@H](Cc1ccccc1)C[C@H](O)[C@H](Cc1ccccc1)NC(=O)c1cccc(O)c1)OCc1ccccn1
EC50 (CCRF-CEM [1]): 300 nM
Ki [2]: 0.85 nM

SMILES: O=C(Nc1ccccc1C(=O)N[C@@H](Cc1ccccc1)[C@H](O)[C@H](O)[C@H](Cc1ccccc1)NC(=O)c1cccc(O)c1)OCc1ccccn1
Ki [2]: 0.5 nM
EC50 (CCRF-CEM [4]): Not Active

SMILES: Cc1c(O)cccc1C(=O)N[C@@H](Cc1ccccc1)[C@@H](O)C[C@H](Cc1ccccc1)NC(=O)c1ccccc1NC(=O)OCc1ccccn1
EC50 (CCRF-CEM [1]): 30 nM
Cmax [8]: 30 nM
Ki [2]: 0.06 nM
bioavailability [6]: 1%
half-life [9]: 2.22 h

SMILES: CCOC(=O)N[C@@H](C(=O)N[C@@H](Cc1ccccc1)[C@@H](O)C[C@H](Cc1ccccc1)NC(=O)c1ccccc1NC(=O)OCc1ccccn1)C(C)C
EC50 (CCRF-CEM [1]): 7 nM
Ki [2]: 0.03 nM

SMILES: Nc1cccc(C(=O)N[C@@H](Cc2ccccc2)[C@@H](O)C[C@H](Cc2ccccc2)NC(=O)c2ccccc2NC(=O)OCc2ccccn2)c1
EC50 (CCRF-CEM [1]): 250 nM
Ki [2]: 0.4 nM

SMILES: O=C(Nc1ccccc1C(=O)N[C@@H](Cc1ccccc1)C[C@H](O)[C@H](Cc1ccccc1)NC(=O)OCc1cncs1)OCc1ccccn1
EC50 (CCRF-CEM [1]): 200 nM
Ratio [10]: > 30
Ki [2]: 0.03 nM
bioavailability [6]: 30%
half-life [9]: 8 h
